“Also recorded” adds a separate entry of the source.
Key:
Aβ42 = Aβ42 IC50 assay (SHSYSY-APP cell-based screening, UCSD sandwich Aβ42 ELISA)
Excerpt: FIG. 8: Representative concentration response curves of Compound 1 using our primary and orthogonal medium throughput SHSYSY-APP cell-based screening assays (10). Compounds are first screened two times in triplicate in our UCSD sandwich Aβ42 ELISA on sequential days and the average of the two assays must be within 3-fold of each other before being entered into the CDD relational database. The UCSD sandwich ELISA assay can easily handle 20 compounds per week. Compounds with Aβ42 IC50 values <100 nM continue through the testing funnel. The Z′ score and the % CV for the UCSD Aβ42 sandwich ELISA assay are 0.8 and 4, respectively. For the Meso Scale triplex assay the Z′ scores are 0.7, 0.9 and 0.6 Aβ42, Aβ40 and Aβ38, respectively and the % CV's are 7, 2 and 1 for Aβ42, Aβ40 and Aβ38, respectively. Aβ total peptides are measured using a sandwich ELISA.
Tabular Results of A1142 Assays Conducted on Compounds of Examples 5-102. Assays are Aβ42 IC50 (nM).

Notch processing = Notch processing in transfected H4-APP751 cells (Western blot, Myc antibody, NICD); type: cell-based, human; conditions: 24 hrs; for Notch processing (NICD levels, Western blot): H4-APP751 cells transfected with the Notch NδED construct, 40 nM, 200 nM, 1000 nM, and 5000 nM
Excerpt: Cells were harvested 48 hrs post transfection and applied to Western blotting analysis. Myc antibody was utilized to assess the NAED and NICD tagged with Myc on their N-termini. β-Actin was utilized as the loading control.
Cells were harvested 48 hrs post transfection and subjected to Western blotting analysis. Myc antibody was utilized to assess the NδED and NICD tagged with Myc on their N-termini.
Stable H4 human neuroglioma cells over-expressing human APP751, or H4-APP751 cells, were transfected with the NAE construct, and then treated with different concentrations SGSM Compound 1 (Lanes 1-6) or DAPT (Lanes 7-10) for another 24 hrs and are shown in FIG. 9. Cells were harvested 48 hrs post transfection and applied to Western blotting analysis. Myc antibody was utilized to assess the NAED and NICD tagged with Myc on their N-termini β-Actin was utilized as the loading control.
Stably-transfected H4 human neuroglioma cells over-expressing human APP751 (H4-APP751) cells, were transfected with the Notch NδED construct, and then treated with vehicle, or different doses of GSMs (40 nM, 200 nM, 1000 nM, and 5000 nM) for 24 hrs. Cells were harvested 48 hrs post transfection and subjected to Western blotting analysis.

Row | SMILES | melting point [°C] | IC50 (Aβ42) [nM] | Notch processing (NICD, Western blot) (Notch processing; H4-APP751 cells transfected with the NAE construct, different concentrations) | Notch processing (NICD levels, Western blot) (Notch processing)
1 | COc1nc(-c2cc(C)c(N[C@@H]3C[C@H]3c3ccccc3)nn2)ccc1-n1cnc(C)c1 (racemic) [Example 72, (+/−)-trans-6-(6-methoxy-5-(4-methyl-1H-imidazol-1-yl)pyridin-2-yl)-4-methyl-N-(2-phenylcyclopropyl)pyridazin-3-amine] | 99 to 102 | 7.1 | – | –
2 | COc1nc(-c2ccc(N[C@@H](C)c3ccc(F)cc3)nn2)ccc1-n1cnc(C)c1 [Compound 2, (S)—N-(1-(4-Fluorophenyl)ethyl)-6-(6-methoxy-5-(4-methyl-1H-imidazol-1-yl)pyridin-2-yl)pyridazin-3-amine] | 96 to 102 | – | – | –
3 | C[C@H](NC(=O)Cc1cc(F)cc(F)c1)C(=O)N[C@H](C(=O)OC(C)(C)C)c1ccccc1 [DAPT, reference compound] | – | – | significantly inhibits Notch processing | significantly inhibits Notch processing
4 | COc1nc(-c2cc(C(C)C)c(NCc3ccc(F)cc3)nn2)ccc1-n1cnc(C)c1 [Example 13, N-(4-fluorobenzyl)-4-isopropyl-6-(6-methoxy-5-(4-methyl-1H-imidazol-1-yl)pyridin-2-yl)pyridazin-3-amine] | 245 to 246 | 21 | – | –
5 | COc1nc(-c2ccc(N)nn2)ccc1-n1cnc(C)c1 [Example 24A, 6-(6-Methoxy-5-(4-methyl-1H-imidazol-1-yl)pyridin-2-yl)pyridazin-3-amine] | > 250 | – | – | –
6 | COc1nc(-c2ccc(NC(=O)c3ccc(F)cc3)nn2)ccc1-n1cnc(C)c1 [Example 24B, 4-Fluoro-N-(6-(6-methoxy-5-(4-methyl-1H-imidazol-1-yl)pyridin-2-yl)pyridazin-3-yl)benzamide] | > 250 | > 10000 | – | –
7 | COc1nc(-c2ccc(NCc3ccc(F)cc3)nn2)ccc1-n1cnc(C)c1 [Example 26, N-(4-fluorobenzyl)-6-(6-methoxy-5-(4-methyl-1H-imidazol-1-yl)pyridin-2-yl)pyridazin-3-amine] | 170 to 172 | 36 | – | –
8 | COc1nc(-c2nnc(N[C@@H](C)c3ccccc3)cc2C)ccc1-n1cnc(C)c1 [Example 28, (S)-6-(6-methoxy-5-(4-methyl-1H-imidazol-1-yl)pyridin-2-yl)-5-methyl-N-(1-phenylethyl)pyridazin-3-amine] | 140 to 143 | 18 | – | –
9 | COc1nc(-c2cc(C)c(N[C@@H](C)c3ccccc3F)nn2)ccc1-n1cnc(C)c1 [Example 34, (S)—N-(1-(2-fluorophenyl)ethyl)-6-(6-methoxy-5-(4-methyl-1H-imidazol-1-yl)pyridin-2-yl)-4-methylpyridazin-3-amine] | – | 4.3 | – | did not decrease the NICD levels at all concentrations studied; also recorded: not inhibit Notch processing
10 | COc1nc(-c2cc(C)c(N[C@@H](C)c3ccc(F)cc3F)nn2)ccc1-n1cnc(C)c1 [Example 45, (S)—N-(1-(2,4-difluorophenyl)ethyl)-6-(6-methoxy-5-(4-methyl-1H-imidazol-1-yl)pyridin-2-yl)-4-methylpyridazin-3-amine] | – | 2.5 | – | did not decrease the NICD levels at all concentrations studied; also recorded: not inhibit Notch processing
11 | COc1nc(-c2cc(C)c(N[C@@H](C)c3cc(F)cc(F)c3)nn2)ccc1-n1cnc(C)c1 [Example 46, (S)—N-(1-(3,5-difluorophenyl)ethyl)-6-(6-methoxy-5-(4-methyl-1H-imidazol-1-yl)pyridin-2-yl)-4-methylpyridazin-3-amine] | – | 4.1 | – | did not decrease the NICD levels at all concentrations studied; also recorded: not inhibit Notch processing
12 | COc1nc(-c2cc(C)c(NCCc3ccc(F)cc3)nn2)ccc1-n1cnc(C)c1 [Example 50, N-(4-fluorophenethyl)-6-(6-methoxy-5-(4-methyl-1H-imidazol-1-yl)pyridin-2-yl)-4-methylpyridazin-3-amine] | 204 to 206 | 38 | – | –
13 | COc1nc(-c2cc(C)c(NC(C)C)nn2)ccc1-n1cnc(C)c1 [Example 65, N-isopropyl-6-(6-methoxy-5-(4-methyl-1H-imidazol-1-yl)pyridin-2-yl)-4-methylpyridazin-3-amine] | 228 to 229 | 188 | – | –
14 | COc1nc(-c2cc(C)c(NCCCc3ccc(F)cc3)nn2)ccc1-n1cnc(C)c1 [Example 73, N-(3-(4-fluorophenyl)propyl)-6-(6-methoxy-5-(4-methyl-1H-imidazol-1-yl)pyridin-2-yl)-4-methylpyridazin-3-amine] | 204 to 206 | 26 | – | –
15 | CC[C@H](Nc1nnc(-c2ccc(-n3cnc(C)c3)c(OC)n2)cc1C)c1ccc(C#N)cc1 [Example 84, (S)-4-(1-((6-(6-methoxy-5-(4-methyl-1H-imidazol-1-yl)pyridin-2-yl)-4-methylpyridazin-3-yl)amino)propyl)benzonitrile] | – | 23 | – | –
16 | COc1nc(-c2cc(C)c(NC3CCC(F)(F)CC3)nn2)ccc1-n1cnc(C)c1 [Example 85, N-(4,4-difluorocyclohexyl)-6-(6-methoxy-5-(4-methyl-1H-imidazol-1-yl)pyridin-2-yl)-4-methyl pyridazin-3-amine] | – | 70 | – | –
17 | CCC[C@H](Nc1nnc(-c2ccc(-n3cnc(C)c3)c(OC)n2)cc1C)c1ccccc1F [Example 86, (S)—N-(1-(2-fluorophenyl)butyl)-6-(6-methoxy-5-(4-methyl-1H-imidazol-1-yl)pyridin-2-yl)-4-methylpyridazin-3-amine] | – | 4.5 | – | –
18 | COC[C@H](Nc1nnc(-c2ccc(-n3cnc(C)c3)c(OC)n2)cc1C)c1ccc(F)cc1 [Example 87, (R)—N-(1-(4-fluorophenyl)-2-methoxyethyl)-6-(6-methoxy-5-(4-methyl-1H-imidazol-1-yl)pyridin-2-yl)-4-methylpyridazin-3-amine] | – | 11.5 | – | –
19 | CC[C@H](Nc1nnc(-c2ccc(-n3cnc(C)c3)c(OC)n2)cc1C)c1ccccc1F [Example 88, (S)—N-(1-(2-fluorophenyl)propyl)-6-(6-methoxy-5-(4-methyl-1H-imidazol-1-yl)pyridin-2-yl)-4-methylpyridazin-3-amine] | – | 12 | – | –
20 | COc1nc(-c2cc(C)c(N[C@@H](C)c3cccc(C)c3C)nn2)ccc1-n1cnc(C)c1 [Example 100, (S)—N-(1-(2,3-dimethylphenyl)ethyl)-6-(6-methoxy-5-(4-methyl-1H-imidazol-1-yl)pyridin-2-yl)-4-methylpyridazin-3-amine] | – | 4 | – | –
21 | COc1nc(-c2cc(C)c(N[C@@H](C)c3cccc(C(F)(F)F)c3F)nn2)ccc1-n1cnc(C)c1 [Example 101, (S)—N-(1-(2-fluoro-3-(trifluoromethyl)phenyl)ethyl)-6-(6-methoxy-5-(4-methyl-1H-imidazol-1-yl)pyridin-2-yl)-4-methylpyridazin-3-amine] | – | 5 | – | –
22 | COc1nc(-c2cc(C)c(N[C@H](c3ccc(F)cc3)C(C)(C)O)nn2)ccc1-n1cnc(C)c1 [Example 102, (R)-1-(4-fluorophenyl)-1-((6-(6-methoxy-5-(4-methyl-1H-imidazol-1-yl)pyridin-2-yl)-4-methylpyridazin-3-yl)amino)-2-methylpropan-2-ol] | – | 6 | – | –
23 | COc1nc(-c2cc(C)c(N[C@H](C)c3ccc(F)cc3Cl)nn2)ccc1-n1cnc(C)c1 [Example 103, (R)—N-(1-(2-chloro-4-fluorophenyl)ethyl)-6-(6-methoxy-5-(4-methyl-1H-imidazol-1-yl)pyridin-2-yl)-4-methylpyridazin-3-amine] | – | 13 | – | –
